Reference: ChEMBL document CHEMBL1201862, “PubChem BioAssay data set” (2004)
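Where inhibition never reached the appropriate level, the endpoint shown equals the highest concentration tested. Otherwise, values were interpolated linearly from a five-concentration, 48-hour dose response in 96-well plates. GI50: concentration for 50% inhibition of growth.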 Activity calls are given as the source filed them. No stated cut-off is given here; in the data, active = GI50 up to about 1.1 µM and inactive = higher.

Columns and labels:
Test in all cases: inhibition of tumour cell growth, NCI panel, 48 h
HOP-92 = system: HOP-92
UACC-62 = system: UACC-62
HCC 2998 = system: HCC 2998
SW-620 = system: SW-620
COLO 205 = system: COLO 205
NCI-H522 = system: NCI-H522
KM12 = system: KM12
MDA-MB-231 = system: MDA-MB-231
TK-10 = system: TK-10
UO-31 = system: UO-31
U-251 = system: U-251
M14 = system: M14
LOX IMVI = system: LOX IMVI
OVCAR-5 = system: OVCAR-5
SF-295 = system: SF-295
MDA-MB-435 = system: MDA-MB-435
SK-OV-3 = system: SK-OV-3
HOP-62 = system: HOP-62
OVCAR-8 = system: OVCAR-8
HL-60 = system: HL-60
HCT-116 = system: HCT-116
NCI-H23 = system: NCI-H23
NCI-H460 = system: NCI-H460
SF-268 = system: SF-268
MCF7 = system: MCF7
CCRF-CEM = system: CCRF-CEM
786-0 = system: 786-0
SN12C = system: SN12C
A549 = system: A549
IGROV-1 = system: IGROV-1
EKVX = system: EKVX
NCI/ADR-RES = system: NCI/ADR-RES
OVCAR-3 = system: OVCAR-3
T47D = system: T47D
SK-MEL-5 = system: SK-MEL-5
SNB-19 = system: SNB-19
HT-29 = system: HT-29
PC-3 = system: PC-3
SR = system: SR
MOLT-4 = system: MOLT-4
SK-MEL-28 = system: SK-MEL-28
DU-145 = system: DU-145
UACC-257 = system: UACC-257
HCT-15 = system: HCT-15
OVCAR-4 = system: OVCAR-4
K562 = system: K562
MDA-N = system: MDA-N
SF-539 = system: SF-539
SNB-75 = system: SNB-75
BT-549 = system: BT-549
ACHN = system: ACHN
CAKI-1 = system: CAKI-1
RPMI-8226 = system: RPMI-8226
A498 = system: A498
NCI-H226 = system: NCI-H226
RXF 393 = system: RXF 393
SK-MEL-2 = system: SK-MEL-2
Malme-3M = system: Malme-3M

Compound: O=C1CCCSCCCC(=O)CCCSCCC1
- GI50 (HOP-92): > 100 µM (inactive)
- GI50 (UACC-62): > 100 µM (inactive)
- GI50 (HCC 2998): > 100 µM (inactive)
- GI50 (SW-620): > 100 µM (inactive)
- GI50 (COLO 205): > 100 µM (inactive)
- GI50 (NCI-H522): > 100 µM (inactive)
- GI50 (KM12): > 100 µM (inactive)
- GI50 (MDA-MB-231): > 100 µM (inactive)
- GI50 (TK-10): > 100 µM (inactive)
- GI50 (UO-31): > 100 µM (inactive)
- GI50 (U-251): > 100 µM (inactive)
- GI50 (M14): > 100 µM (inactive)
- GI50 (LOX IMVI): > 100 µM (inactive)
- GI50 (OVCAR-5): > 100 µM (inactive)
- GI50 (SF-295): > 100 µM (inactive)
- GI50 (MDA-MB-435): > 100 µM (inactive)
- GI50 (SK-OV-3): > 100 µM (inactive)
- GI50 (HOP-62): > 100 µM (inactive)
- GI50 (OVCAR-8): > 100 µM (inactive)
- GI50 (HL-60): > 100 µM (inactive)
- GI50 (HCT-116): > 100 µM (inactive)
- GI50 (NCI-H23): > 100 µM (inactive)
- GI50 (NCI-H460): > 100 µM (inactive)
- GI50 (SF-268): > 100 µM (inactive)
- GI50 (MCF7): > 100 µM (inactive)
- GI50 (CCRF-CEM): > 100 µM (inactive)
- GI50 (786-0): > 100 µM (inactive)
- GI50 (SN12C): > 100 µM (inactive)
- GI50 (A549): > 100 µM (inactive)
- GI50 (IGROV-1): > 100 µM (inactive)
- GI50 (EKVX): > 100 µM (inactive)
- GI50 (NCI/ADR-RES): > 100 µM (inactive)
- GI50 (OVCAR-3): > 100 µM (inactive)
- GI50 (T47D): > 100 µM (inactive)
- GI50 (SK-MEL-5): > 100 µM (inactive)
- GI50 (SNB-19): > 100 µM (inactive)
- GI50 (HT-29): > 100 µM (inactive)
- GI50 (PC-3): > 100 µM (inactive)
- GI50 (SR): > 100 µM (inactive)
- GI50 (MOLT-4): > 100 µM (inactive)
- GI50 (SK-MEL-28): > 100 µM (inactive)
- GI50 (DU-145): > 100 µM (inactive)
- GI50 (UACC-257): > 100 µM (inactive)
- GI50 (HCT-15): > 100 µM
- GI50 (OVCAR-4): > 100 µM (inactive)
- GI50 (K562): > 100 µM (inactive)
- GI50 (MDA-N): > 100 µM (inactive)
- GI50 (SF-539): > 100 µM (inactive)
- GI50 (SNB-75): 93.3 µM (inactive)
- GI50 (BT-549): > 100 µM (inactive)

Compound: Oc1cccc(-c2nc3cc(F)ccc3s2)c1
- GI50 (UACC-62): 14.5 µM (inactive)
- GI50 (HCC 2998): 9.02 µM (inactive)
- GI50 (SW-620): 22 µM (inactive)
- GI50 (ACHN): 23.8 µM (inactive)
- GI50 (CAKI-1): 15.1 µM (inactive)
- GI50 (RPMI-8226): 20.3 µM (inactive)
- GI50 (COLO 205): 15.1 µM (inactive)
- GI50 (NCI-H522): 10.6 µM (inactive)
- GI50 (KM12): 11.9 µM (inactive)
- GI50 (A498): 1.11 µM (active)
- GI50 (MDA-MB-231): 15.9 µM (inactive)
- GI50 (TK-10): 12.4 µM (inactive)
- GI50 (UO-31): 14.5 µM (inactive)
- GI50 (U-251): 24.5 µM (inactive)
- GI50 (M14): 18.1 µM (inactive)
- GI50 (LOX IMVI): 15.6 µM (inactive)
- GI50 (OVCAR-5): 21.4 µM (inactive)
- GI50 (NCI-H226): 9.46 µM (inactive)
- GI50 (SF-295): 20.6 µM (inactive)
- GI50 (MDA-MB-435): 23.9 µM (inactive)
- GI50 (SK-OV-3): 16.7 µM (inactive)
- GI50 (OVCAR-8): 20.6 µM (inactive)
- GI50 (HL-60): 23.2 µM (inactive)
- GI50 (HCT-116): 21.3 µM (inactive)
- GI50 (NCI-H23): 16.6 µM (inactive)
- GI50 (NCI-H460): 18.6 µM (inactive)
- GI50 (SF-268): 23.9 µM (inactive)
- GI50 (MCF7): 1.6 µM (inactive)
- GI50 (CCRF-CEM): 22.3 µM (inactive)
- GI50 (786-0): 19.5 µM (inactive)
- GI50 (SN12C): 23.4 µM (inactive)
- GI50 (A549): 23.6 µM (inactive)
- GI50 (IGROV-1): 2.34 µM (inactive)
- GI50 (RXF 393): 25.9 µM (inactive)
- GI50 (EKVX): 3.84 µM (inactive)
- GI50 (NCI/ADR-RES): 17.4 µM (inactive)
- GI50 (OVCAR-3): 11.5 µM (inactive)
- GI50 (T47D): 0.225 µM (active)
- GI50 (SK-MEL-5): 10.7 µM (inactive)
- GI50 (SNB-19): 24.4 µM (inactive)
- GI50 (HT-29): 16.6 µM (inactive)
- GI50 (PC-3): 24.2 µM (inactive)
- GI50 (SR): 18 µM (inactive)
- GI50 (MOLT-4): 20.5 µM (inactive)
- GI50 (SK-MEL-28): 19.2 µM (inactive)
- GI50 (DU-145): 18.7 µM (inactive)
- GI50 (UACC-257): 13.9 µM (inactive)
- GI50 (HCT-15): 11.2 µM
- GI50 (OVCAR-4): 9.42 µM (inactive)
- GI50 (K562): 27.5 µM (inactive)
- GI50 (MDA-N): 19.4 µM (inactive)
- GI50 (SF-539): 19.4 µM (inactive)
- GI50 (SNB-75): 11.1 µM (inactive)
- GI50 (SK-MEL-2): 19.8 µM (inactive)
- GI50 (Malme-3M): 16.2 µM (inactive)
- GI50 (BT-549): 16.9 µM (inactive)
